# Patent US20230181727A1, “COMPOSITION OF NANOPARTICLES” (priority 2020, published 2023)
# Key:
# [1] = Solubility enhancement of epitopes (solubility in water); assay type: physicochemical
# Text: On the N-terminal site of the enzymatically cleaved linker the addition of polar amino acids can be used to enhance the solubility of the whole peptide. […] The use in a human vaccine is difficult. In animal studies researchers dissolve it in DMSO. The solubility after e.g. subcutaneous injection is questionable: dilution might result in precipitation of large peptide particles, which is very unfavorable for transport to lymphnodes.
# According to the invention the epitope […] was enlarged on the N-terminal site with the enzymatic cleavable linker Val-Cit and the cationic solubilizing sequence Lys-Lys-Lys, leading to […]
# [2] = tested on: DC2.4 cells; experiment: MHC I cross presentation of OVA 257-264 in DC2.4 cells; assay type: cell-based, murine; conditions: 5 μM, 6 h incubation, 25-D1.16 antibody, flow cytometry
# Procedure: In the experiment, the OVA257-264 presentation efficacy after incubation of 5.10^4 DC2.4 cells with 5 μM solutions of full length protein (OVA=Ovalbumin), N— and C-terminal elongated epitope (OVA247-264A5K, a so called synthetic long peptide (SLP)), N-terminal elongated epitope with a Cathepsin B cleavable sequence (exemplary shown RW-Cit-OVA257-264) or native epitope (OVA257-264), each with and without nanoparticles, was compared. […] After an incubation time of 6 h, the test substances are removed by washing with phosphate-buffered saline (PBS). In the next step, the cells were incubated with CD1 6/CD32 antibody in order to block the non-specific binding of the detection antibody to the Fc (Fragment, crystallizable) receptor of the cells. After incubation with 25-D1.16 antibody, the amount of cross-presented OVA257-264 was quantified by flow cytometry.
# FIG. 16: OVA257-264 MHC I expression after 6 h incubation of H2-Kb positive cells with 5 μM solution of native or elongated OVA257-264 epitope or full length OVA protein with or without SiO2—PO3H2. Quantification was carried out by flow cytometry after labeling with 25-D1.16 detection antibody.
compound,measurement,setting,value
CC[C@H](C)[C@H](NC(=O)CNC(=O)[C@H](CC(C)C)NC(=O)[C@@H](NC(=O)CNC(=O)[C@H](CCSC)NC(=O)[C@H](CC(C)C)NC(=O)[C@H](CC(C)C)NC(=O)[C@H](CCCNC(N)=O)NC(=O)[C@@H](NC(=O)[C@H](CCCCN)NC(=O)[C@H](CCCCN)NC(=O)[C@@H](N)CCCCN)C(C)C)[C@@H](C)O)C(=O)N[C@H](C(=O)O)C(C)C,solubility in water,[1],excellent solubility in water
CC[C@H](C)[C@H](NC(=O)CNC(=O)[C@H](CC(C)C)NC(=O)[C@@H](NC(=O)CNC(=O)[C@H](CCSC)NC(=O)[C@H](CC(C)C)NC(=O)[C@@H](N)CC(C)C)[C@@H](C)O)C(=O)N[C@H](C(=O)O)C(C)C,solubility in water,[1],very bad solubility in water
SIINFEKL [OVA257-264],OVA257-264 MHC I expression,[2],presented in significant amounts
